Experimental data published in PubChem BioAssay (NCI).
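Assay format: 96-well plates, 48-hour exposure. TGI is the concentration that stops growth completely.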

Legend:
Assay in all cases: NCI anticancer screen, dose series, 48 h
786-0 renal = test system: 786-0 renal
A498 renal = test system: A498 renal
A549 NSCLC = test system: A549 NSCLC
ACHN renal = test system: ACHN renal
BT-549 breast = test system: BT-549 breast
CAKI-1 renal = test system: CAKI-1 renal
CCRF-CEM leukemia = test system: CCRF-CEM leukemia
COLO 205 colon = test system: COLO 205 colon
DU-145 prostate = test system: DU-145 prostate
EKVX NSCLC = test system: EKVX NSCLC
HCC-2998 colon = test system: HCC-2998 colon
HCT-116 colon = test system: HCT-116 colon
HCT-15 colon = test system: HCT-15 colon
HL-60(TB) leukemia = test system: HL-60(TB) leukemia
HOP-62 NSCLC = test system: HOP-62 NSCLC
HS 578T breast = test system: HS 578T breast
HT29 colon = test system: HT29 colon
IGROV1 ovarian = test system: IGROV1 ovarian
K-562 leukemia = test system: K-562 leukemia
KM12 colon = test system: KM12 colon
LOX IMVI melanoma = test system: LOX IMVI melanoma
M14 melanoma = test system: M14 melanoma
MALME-3M melanoma = test system: MALME-3M melanoma
MCF7 breast = test system: MCF7 breast
MDA-MB-231 breast = test system: MDA-MB-231 breast
MDA-MB-435 = test system: MDA-MB-435
MDA-N = test system: MDA-N
MOLT-4 leukemia = test system: MOLT-4 leukemia
NCI-H226 lung = test system: NCI-H226 lung
NCI-H23 lung = test system: NCI-H23 lung
NCI-H460 lung = test system: NCI-H460 lung
NCI-H522 lung = test system: NCI-H522 lung
NCI/ADR-RES ovarian = test system: NCI/ADR-RES ovarian
OVCAR-3 ovarian = test system: OVCAR-3 ovarian
OVCAR-4 ovarian = test system: OVCAR-4 ovarian
OVCAR-5 ovarian = test system: OVCAR-5 ovarian
OVCAR-8 ovarian = test system: OVCAR-8 ovarian
PC-3 prostate = test system: PC-3 prostate
RPMI-8226 leukemia = test system: RPMI-8226 leukemia
RXF 393 renal = test system: RXF 393 renal
SF-268 CNS = test system: SF-268 CNS
SF-295 CNS = test system: SF-295 CNS
SF-539 CNS = test system: SF-539 CNS
SK-MEL-2 melanoma = test system: SK-MEL-2 melanoma
SK-MEL-28 melanoma = test system: SK-MEL-28 melanoma
SK-MEL-5 melanoma = test system: SK-MEL-5 melanoma
SK-OV-3 ovarian = test system: SK-OV-3 ovarian
SN12C renal = test system: SN12C renal
SNB-19 CNS = test system: SNB-19 CNS
SNB-75 CNS = test system: SNB-75 CNS
SR leukemia = test system: SR leukemia
SW-620 colon = test system: SW-620 colon
T-47D breast = test system: T-47D breast
TK-10 renal = test system: TK-10 renal
U251 CNS = test system: U251 CNS
UACC-257 melanoma = test system: UACC-257 melanoma
UACC-62 melanoma = test system: UACC-62 melanoma
UO-31 renal = test system: UO-31 renal
HOP-92 NSCLC = test system: HOP-92 NSCLC

With `CCOC(=O)C12OC(CCC1=O)C(C(=O)OC)=C2C(=O)OC` (stereo not drawn) the TGI (786-0 renal) was greater than 10 µM, the TGI (A498 renal) was greater than 10 µM and the TGI (A549 NSCLC) was greater than 10 µM. The TGI (ACHN renal) was greater than 10 µM, the TGI (BT-549 breast) was greater than 10 µM and the TGI (CAKI-1 renal) was greater than 10 µM. It also gave a TGI (CCRF-CEM leukemia) greater than 10 µM, a TGI (COLO 205 colon) greater than 10 µM and a TGI (DU-145 prostate) greater than 10 µM. The TGI (EKVX NSCLC) was greater than 10 µM, the TGI (HCC-2998 colon) was greater than 10 µM and the TGI (HCT-116 colon) was greater than 10 µM. The TGI (HCT-15 colon) was greater than 10 µM, the TGI (HL-60(TB) leukemia) was greater than 10 µM and the TGI (HOP-62 NSCLC) was greater than 10 µM. For the same molecule, the TGI (HS 578T breast) was greater than 10 µM, the TGI (HT29 colon) was greater than 10 µM and the TGI (IGROV1 ovarian) was greater than 10 µM. For the same molecule, the TGI (K-562 leukemia) was greater than 10 µM, the TGI (KM12 colon) was greater than 10 µM and the TGI (LOX IMVI melanoma) was greater than 10 µM. For the same molecule, the TGI (M14 melanoma) was greater than 10 µM, the TGI (MALME-3M melanoma) was greater than 10 µM and the TGI (MCF7 breast) was greater than 10 µM. The TGI (MDA-MB-231 breast) was greater than 10 µM, the TGI (MDA-MB-435) was greater than 10 µM and the TGI (MDA-N) was greater than 10 µM. It also gave a TGI (MOLT-4 leukemia) greater than 10 µM, a TGI (NCI-H226 lung) greater than 10 µM and a TGI (NCI-H23 lung) greater than 10 µM. For the same molecule, the TGI (NCI-H460 lung) was greater than 10 µM, the TGI (NCI-H522 lung) was greater than 10 µM and the TGI (NCI/ADR-RES ovarian) was greater than 10 µM. For the same molecule, the TGI (OVCAR-3 ovarian) was greater than 10 µM, the TGI (OVCAR-4 ovarian) was greater than 10 µM and the TGI (OVCAR-5 ovarian) was greater than 10 µM. It also gave a TGI (OVCAR-8 ovarian) greater than 10 µM, a TGI (PC-3 prostate) greater than 10 µM and a TGI (RPMI-8226 leukemia) greater than 10 µM. It also gave a TGI (RXF 393 renal) greater than 10 µM, a TGI (SF-268 CNS) greater than 10 µM and a TGI (SF-295 CNS) greater than 10 µM. For the same molecule, the TGI (SF-539 CNS) was greater than 10 µM, the TGI (SK-MEL-2 melanoma) was greater than 10 µM and the TGI (SK-MEL-28 melanoma) was greater than 10 µM. It also gave a TGI (SK-MEL-5 melanoma) greater than 10 µM, a TGI (SK-OV-3 ovarian) greater than 10 µM and a TGI (SN12C renal) greater than 10 µM. It also gave a TGI (SNB-19 CNS) greater than 10 µM, a TGI (SNB-75 CNS) greater than 10 µM and a TGI (SR leukemia) greater than 10 µM. For the same molecule, the TGI (SW-620 colon) was greater than 10 µM, the TGI (T-47D breast) was greater than 10 µM and the TGI (TK-10 renal) was greater than 10 µM. It also gave a TGI (U251 CNS) greater than 10 µM, a TGI (UACC-257 melanoma) greater than 10 µM and a TGI (UACC-62 melanoma) greater than 10 µM. The TGI (UO-31 renal) was greater than 10 µM.
With `COC(=O)c1ccccc1/C=C1\Cc2ccc(C)c(C)c2C1=O` the TGI (786-0 renal) was greater than 100 µM, the TGI (A498 renal) was greater than 100 µM and the TGI (A549 NSCLC) was greater than 100 µM. It also gave a TGI (ACHN renal) greater than 100 µM, a TGI (BT-549 breast) greater than 100 µM and a TGI (CAKI-1 renal) greater than 100 µM. For the same molecule, the TGI (CCRF-CEM leukemia) was greater than 100 µM, the TGI (COLO 205 colon) was greater than 100 µM and the TGI (DU-145 prostate) was greater than 100 µM. For the same molecule, the TGI (EKVX NSCLC) was greater than 100 µM, the TGI (HCC-2998 colon) was greater than 100 µM and the TGI (HCT-116 colon) was greater than 100 µM. For the same molecule, the TGI (HCT-15 colon) was greater than 100 µM, the TGI (HL-60(TB) leukemia) was greater than 100 µM and the TGI (HOP-62 NSCLC) was greater than 100 µM. The TGI (HOP-92 NSCLC) was 92.5 µM, the TGI (HS 578T breast) was greater than 100 µM and the TGI (HT29 colon) was greater than 100 µM. For the same molecule, the TGI (IGROV1 ovarian) was greater than 100 µM, the TGI (K-562 leukemia) was greater than 100 µM and the TGI (KM12 colon) was greater than 100 µM. The TGI (LOX IMVI melanoma) was greater than 100 µM, the TGI (M14 melanoma) was greater than 100 µM and the TGI (MALME-3M melanoma) was greater than 100 µM. The TGI (MCF7 breast) was greater than 100 µM, the TGI (MDA-MB-435) was greater than 100 µM and the TGI (MDA-N) was greater than 100 µM. For the same molecule, the TGI (MOLT-4 leukemia) was greater than 100 µM, the TGI (NCI-H226 lung) was greater than 100 µM and the TGI (NCI-H23 lung) was greater than 100 µM. The TGI (NCI-H460 lung) was greater than 100 µM, the TGI (NCI-H522 lung) was greater than 100 µM and the TGI (NCI/ADR-RES ovarian) was greater than 100 µM. For the same molecule, the TGI (OVCAR-3 ovarian) was greater than 100 µM, the TGI (OVCAR-4 ovarian) was greater than 100 µM and the TGI (OVCAR-5 ovarian) was greater than 100 µM. For the same molecule, the TGI (OVCAR-8 ovarian) was greater than 100 µM, the TGI (PC-3 prostate) was greater than 100 µM and the TGI (RPMI-8226 leukemia) was greater than 100 µM. For the same molecule, the TGI (RXF 393 renal) was greater than 100 µM, the TGI (SF-268 CNS) was greater than 100 µM and the TGI (SF-295 CNS) was greater than 100 µM. It also gave a TGI (SF-539 CNS) greater than 100 µM, a TGI (SK-MEL-2 melanoma) greater than 100 µM and a TGI (SK-MEL-28 melanoma) greater than 100 µM. It also gave a TGI (SK-MEL-5 melanoma) greater than 100 µM, a TGI (SN12C renal) greater than 100 µM and a TGI (SNB-19 CNS) greater than 100 µM. It also gave a TGI (SNB-75 CNS) greater than 100 µM, a TGI (SR leukemia) greater than 100 µM and a TGI (SW-620 colon) greater than 100 µM. For the same molecule, the TGI (T-47D breast) was greater than 100 µM, the TGI (TK-10 renal) was greater than 100 µM and the TGI (U251 CNS) was greater than 100 µM. It also gave a TGI (UACC-257 melanoma) greater than 100 µM, a TGI (UACC-62 melanoma) greater than 100 µM and a TGI (UO-31 renal) greater than 100 µM.
`O=C(O)Cc1cc(Cl)ccc1O` showed a TGI (786-0 renal) greater than 100 µM, a TGI (A498 renal) greater than 100 µM and a TGI (A549 NSCLC) greater than 100 µM. It also gave a TGI (ACHN renal) greater than 100 µM, a TGI (BT-549 breast) greater than 100 µM and a TGI (CAKI-1 renal) greater than 100 µM. It also gave a TGI (CCRF-CEM leukemia) greater than 100 µM, a TGI (COLO 205 colon) greater than 100 µM and a TGI (DU-145 prostate) greater than 100 µM. It also gave a TGI (EKVX NSCLC) greater than 100 µM, a TGI (HCC-2998 colon) greater than 100 µM and a TGI (HCT-116 colon) greater than 100 µM. It also gave a TGI (HCT-15 colon) greater than 100 µM, a TGI (HL-60(TB) leukemia) greater than 100 µM and a TGI (HOP-62 NSCLC) greater than 100 µM. It also gave a TGI (HOP-92 NSCLC) greater than 100 µM, a TGI (HS 578T breast) greater than 100 µM and a TGI (HT29 colon) greater than 100 µM. For the same molecule, the TGI (IGROV1 ovarian) was greater than 100 µM, the TGI (K-562 leukemia) was greater than 100 µM and the TGI (KM12 colon) was greater than 100 µM. The TGI (LOX IMVI melanoma) was greater than 100 µM, the TGI (M14 melanoma) was greater than 100 µM and the TGI (MALME-3M melanoma) was greater than 100 µM. It also gave a TGI (MCF7 breast) greater than 100 µM, a TGI (MDA-MB-231 breast) greater than 100 µM and a TGI (MDA-MB-435) greater than 100 µM. It also gave a TGI (MDA-N) greater than 100 µM, a TGI (NCI-H226 lung) greater than 100 µM and a TGI (NCI-H23 lung) greater than 100 µM. The TGI (NCI-H460 lung) was greater than 100 µM, the TGI (NCI-H522 lung) was greater than 100 µM and the TGI (NCI/ADR-RES ovarian) was greater than 100 µM. It also gave a TGI (OVCAR-3 ovarian) greater than 100 µM, a TGI (OVCAR-4 ovarian) greater than 100 µM and a TGI (OVCAR-5 ovarian) greater than 100 µM. It also gave a TGI (OVCAR-8 ovarian) greater than 100 µM, a TGI (PC-3 prostate) greater than 100 µM and a TGI (RPMI-8226 leukemia) greater than 100 µM. For the same molecule, the TGI (RXF 393 renal) was greater than 100 µM, the TGI (SF-268 CNS) was greater than 100 µM and the TGI (SF-295 CNS) was greater than 100 µM. For the same molecule, the TGI (SF-539 CNS) was greater than 100 µM, the TGI (SK-MEL-2 melanoma) was greater than 100 µM and the TGI (SK-MEL-28 melanoma) was greater than 100 µM. For the same molecule, the TGI (SK-MEL-5 melanoma) was greater than 100 µM, the TGI (SK-OV-3 ovarian) was greater than 100 µM and the TGI (SN12C renal) was greater than 100 µM. For the same molecule, the TGI (SNB-19 CNS) was greater than 100 µM, the TGI (SNB-75 CNS) was greater than 100 µM and the TGI (SR leukemia) was greater than 100 µM. It also gave a TGI (SW-620 colon) greater than 100 µM, a TGI (T-47D breast) greater than 100 µM and a TGI (TK-10 renal) greater than 100 µM. The TGI (U251 CNS) was greater than 100 µM, the TGI (UACC-257 melanoma) was greater than 100 µM and the TGI (UACC-62 melanoma) was greater than 100 µM. For the same molecule, the TGI (UO-31 renal) was greater than 100 µM.
